System: rats subjected to sTBI
Experiment: sTBI rats, LMW-DS 1, 5, 15 mg/kg s.c. 30 min post-TBI: HPLC of brain energy metabolites, antioxidants, oxidative/nitrosative stress biomarkers (Example 4)
Assay type: in vivo, rat
Experimental: Male Wistar rats (n=160) of 300-350 g body weight were used in this study. They were fed with standard laboratory diet and water ad libitum in a controlled environment.
As the accepted anesthetic mixture, animals received 35 mg/kg b.w. ketamine and 0.25 mg/kg body weight midazolam by intramuscular injection. Diffuse sTBI was induced according to the “weight drop” impact acceleration model set up by Marmarou et al. J. Neurosurg. 1994, 80: 291-300. This model causes diffuse axonal injury and it is able to reproduce the physical and mechanical characteristics of the diffuse TBI in humans.
Severe TBI was induced by dropping a 450 g weight from 2 meters height onto the rat head protected by a helmet (metal disk previously fixed on the skull using dental cement) in order to uniformly distribute the mechanical force to the brain. Rats were placed prone on a bed of specific polyurethane foam inserted in a special container; this foam dissipates the major part of the potential energy (deriving from the mechanical forces) and prevents any rebound of the animal after the impact that could produce spinal damages.
After 2 or 7 days from TBI induction, rats were anesthetized again and then immediately sacrificed. These time points are coincident with the worst biochemical derangement (2 days) or, in the case of a mildly injured brain, with a full metabolic recovery (7 days).
The drug treatment consisted in a subcutaneous injection of 0.5 ml of LMW-DS (ILB®, Tikomed, Viken, Sweden, WO 2016/076780) and administered at 3 different concentrations (1, 5 and 15 mg/kg body weight), according to the schematic protocol described below. Sham-operated animals underwent the same procedure of anesthesia but TBI and were used as the control group.
Rats subjected to sTBI and receiving a single administration of LMW-DS after 30 minutes post-TBI, with sacrifice at 2 days post-TBI. Animals were divided in the following subgroups: • 1. 12 animals subjected to sTBI and treated with 1 mg/kg b.w. LMW-DS • 2. 12 animals subjected to sTBI and treated with 5 mg/kg b.w. LMW-DS • 3. 12 animals subjected to sTBI and treated with 15 mg/kg b.w. LMW-DS
Rats subjected to sTBI and receiving a single administration of LMW-DS after 30 minutes post-TBI, with sacrifice at 7 days post-TBI. Animals were divided in the following subgroups: • 1. 12 animals subjected to sTBI and treated with 1 mg/kg b.w. LMW-DS • 2. 12 animals subjected to sTBI and treated with 5 mg/kg b.w. LMW-DS • 3. 12 animals subjected to sTBI and treated with 15 mg/kg b.w. LMW-DS
Rats (n = 12) subjected to sTBI and receiving repeated administrations of the maximal dose of LMW-DS (15 mg/kg b.w.) after 30 minutes, 3 days and 5 days post-TBI, with sacrifice at 7 days post-TBI. Four additional rats were used for the histo-morphological studies. Total rats in this group: n=16
To minimize metabolite loss, an in vivo craniectomy was performed in all animals during anesthesia. The rat skull was carefully removed, the brain was exposed, sharply cut along the sagittal fissure and the two hemispheres were separated. The hemispheres dedicated to biochemical analyses were freeze-clamped by aluminum tongues pre-cooled in liquid nitrogen and then immersed in liquid nitrogen. The freeze-clamping procedure was introduced to accelerate freezing of the tissue, thus minimizing potential metabolite loss.
Tissue homogenization for metabolite analyses was effected as described below. After the wet weight (w.w.) determination, the frozen hemispheres were placed into 7 ml of ice-cold, nitrogen-saturated, precipitating solution (1:10 w/v) composed by CH3CN + 10 mM KH2PO4, pH 7.40, (3:1; v:v), and the homogenization was performed using an Ultra-Turrax homogenizer set at 24,000 rpm/min (Janke & Kunkel, Staufen, Germany). […]

[1] = 1 mg/kg, 7 d post-sTBI, adimensional ratio

sodium salt of dextran sulfate [LMW-DS]
UDP-Glc (1 mg/kg, 7 d post-sTBI): 63.19 ± 12.84 nmol/g w.w.
UDP-GlcNac (1 mg/kg, 7 d post-sTBI): 85.36 ± 29.53 nmol/g w.w.
UMP (1 mg/kg, 7 d post-sTBI): 103.06 ± 19.96 nmol/g w.w.
URACIL (1 mg/kg, 7 d post-sTBI): 14.78 ± 3.04 nmol/g w.w.
URIC ACID (1 mg/kg, 7 d post-sTBI): 7.13 ± 1.70 nmol/g w.w.
URIDINE (1 mg/kg, 7 d post-sTBI): 110.17 ± 26.11 nmol/g w.w.
UTP (1 mg/kg, 7 d post-sTBI): 179.75 ± 31.48 nmol/g w.w.
XANTHINE (1 mg/kg, 7 d post-sTBI): 12.53 ± 3.54 nmol/g w.w.
β-PSEUDOURIDINE (1 mg/kg, 7 d post-sTBI): 14.00 ± 2.60 nmol/g w.w.
ATP/ADP [1]: 6.12 ± 0.78
NAD+/NADH [1]: 33.91 ± 9.32
ADENOSINE (5 mg/kg, 2 d post-sTBI): 92.58 ± 22.16 nmol/g w.w.
ADP (5 mg/kg, 2 d post-sTBI): 364.92 ± 31.39 nmol/g w.w.
ADP-Ribose (5 mg/kg, 2 d post-sTBI): 21.65 ± 4.35 nmol/g w.w.
AMP (5 mg/kg, 2 d post-sTBI): 67.03 ± 11.85 nmol/g w.w.
ASCORBIC ACID (5 mg/kg, 2 d post-sTBI): 2626.68 ± 151.17 nmol/g w.w.
ATP (5 mg/kg, 2 d post-sTBI): 1683.87 ± 98.66 nmol/g w.w.
Acetyl-CoA (5 mg/kg, 2 d post-sTBI): 34.85 ± 4.05 nmol/g w.w.
CDP choline (5 mg/kg, 2 d post-sTBI): 5.16 ± 0.77 nmol/g w.w.
CMP (5 mg/kg, 2 d post-sTBI): 28.94 ± 5.91 nmol/g w.w.
CREATININE (5 mg/kg, 2 d post-sTBI): 10.22 ± 1.90 nmol/g w.w.
CTP (5 mg/kg, 2 d post-sTBI): 37.72 ± 7.63 nmol/g w.w.
CYTIDINE (5 mg/kg, 2 d post-sTBI): 7.47 ± 1.35 nmol/g w.w.
CYTOSINE (5 mg/kg, 2 d post-sTBI): 13.65 ± 1.67 nmol/g w.w.
CoA-SH (5 mg/kg, 2 d post-sTBI): 7.46 ± 0.82 nmol/g w.w.
GDP (5 mg/kg, 2 d post-sTBI): 183.27 ± 25.32 nmol/g w.w.
GDP Glucose (5 mg/kg, 2 d post-sTBI): 83.81 ± 37.35 nmol/g w.w.
GMP (5 mg/kg, 2 d post-sTBI): 167.44 ± 8.47 nmol/g w.w.
GSH (5 mg/kg, 2 d post-sTBI): 2067.79 ± 301.54 nmol/g w.w.
GTP (5 mg/kg, 2 d post-sTBI): 180.01 ± 18.99 nmol/g w.w.
GUANINE (5 mg/kg, 2 d post-sTBI): 1.68 ± 0.42 nmol/g w.w.
GUANOSINE (5 mg/kg, 2 d post-sTBI): 30.97 ± 5.15 nmol/g w.w.
HYPOXANTHINE (5 mg/kg, 2 d post-sTBI): 4.18 ± 0.68 nmol/g w.w.
IMP (5 mg/kg, 2 d post-sTBI): 33.19 ± 6.25 nmol/g w.w.
INOSINE (5 mg/kg, 2 d post-sTBI): 114.89 ± 14.98 nmol/g w.w.
MDA (5 mg/kg, 2 d post-sTBI): 32.73 ± 5.33 nmol/g w.w.
Malonyl-CoA (5 mg/kg, 2 d post-sTBI): 35.58 ± 7.54 nmol/g w.w.
NADH (5 mg/kg, 2 d post-sTBI): 10.37 ± 1.19 nmol/g w.w.
NADPH (5 mg/kg, 2 d post-sTBI): 37.48 ± 3.11 nmol/g w.w.
NADP^+ (5 mg/kg, 2 d post-sTBI): 11.86 ± 2.71 nmol/g w.w.
NAD^+ (5 mg/kg, 2 d post-sTBI): 376.85 ± 64.15 nmol/g w.w.
NO2 (5 mg/kg, 2 d post-sTBI): 218.12 ± 26.28 nmol/g w.w.
NO3 (5 mg/kg, 2 d post-sTBI): 148.41 ± 32.30 nmol/g w.w.
UDP (5 mg/kg, 2 d post-sTBI): 70.93 ± 7.27 nmol/g w.w.
UDP-Gal (5 mg/kg, 2 d post-sTBI): 116.42 ± 9.72 nmol/g w.w.
UDP-GalNac (5 mg/kg, 2 d post-sTBI): 20.75 ± 3.06 nmol/g w.w.
UDP-Glc (5 mg/kg, 2 d post-sTBI): 28.60 ± 4.23 nmol/g w.w.
UDP-GlcNac (5 mg/kg, 2 d post-sTBI): 140.58 ± 12.80 nmol/g w.w.
UMP (5 mg/kg, 2 d post-sTBI): 97.98 ± 13.53 nmol/g w.w.
URACIL (5 mg/kg, 2 d post-sTBI): 17.83 ± 3.48 nmol/g w.w.
URIC ACID (5 mg/kg, 2 d post-sTBI): 11.22 ± 2.30 nmol/g w.w.
URIDINE (5 mg/kg, 2 d post-sTBI): 117.21 ± 20.64 nmol/g w.w.
UTP (5 mg/kg, 2 d post-sTBI): 142.82 ± 22.43 nmol/g w.w.
XANTHINE (5 mg/kg, 2 d post-sTBI): 6.71 ± 0.70 nmol/g w.w.
β-PSEUDOURIDINE (5 mg/kg, 2 d post-sTBI): 10.41 ± 2.09 nmol/g w.w.
NAD^+/NADH (5 mg/kg, 2 d post-sTBI, adimensional ratio): 36.61 ± 6.09
ADENOSINE (5 mg/kg, 7 d post-sTBI): 22.24 ± 16.47 nmol/g w.w.
ADP (5 mg/kg, 7 d post-sTBI): 289.27 ± 38.52 nmol/g w.w.
ADP-Ribose (5 mg/kg, 7 d post-sTBI): 6.76 ± 1.70 nmol/g w.w.
AMP (5 mg/kg, 7 d post-sTBI): 59.50 ± 4.68 nmol/g w.w.
ASCORBIC ACID (5 mg/kg, 7 d post-sTBI): 2195.87 ± 264.45 nmol/g w.w.
ATP (5 mg/kg, 7 d post-sTBI): 1730.92 ± 139.24 nmol/g w.w.
Acetyl-CoA (5 mg/kg, 7 d post-sTBI): 22.87 ± 3.89 nmol/g w.w.
CDP choline (5 mg/kg, 7 d post-sTBI): 10.37 ± 3.33 nmol/g w.w.
CMP (5 mg/kg, 7 d post-sTBI): 55.67 ± 22.97 nmol/g w.w.
CREATININE (5 mg/kg, 7 d post-sTBI): 5.48 ± 0.97 nmol/g w.w.
CTP (5 mg/kg, 7 d post-sTBI): 79.08 ± 14.54 nmol/g w.w.
CYTIDINE (5 mg/kg, 7 d post-sTBI): 26.51 ± 9.33 nmol/g w.w.
CYTOSINE (5 mg/kg, 7 d post-sTBI): 12.67 ± 2.72 nmol/g w.w.
CoA-SH (5 mg/kg, 7 d post-sTBI): 51.86 ± 6.66 nmol/g w.w.
GDP (5 mg/kg, 7 d post-sTBI): 126.82 ± 14.49 nmol/g w.w.
GDP Glucose (5 mg/kg, 7 d post-sTBI): 104.76 ± 12.25 nmol/g w.w.
GMP (5 mg/kg, 7 d post-sTBI): 101.42 ± 48.00 nmol/g w.w.
GSH (5 mg/kg, 7 d post-sTBI): 2412.17 ± 317.97 nmol/g w.w.
GTP (5 mg/kg, 7 d post-sTBI): 453.86 ± 41.27 nmol/g w.w.
GUANINE (5 mg/kg, 7 d post-sTBI): 7.92 ± 3.37 nmol/g w.w.
GUANOSINE (5 mg/kg, 7 d post-sTBI): 33.42± 6.96 nmol/g w.w.
HYPOXANTHINE (5 mg/kg, 7 d post-sTBI): 13.45 ± 3.91 nmol/g w.w.
IMP (5 mg/kg, 7 d post-sTBI): 68.72 ± 17.60 nmol/g w.w.
INOSINE (5 mg/kg, 7 d post-sTBI): 196.61 ± 22.06 nmol/g w.w.
MDA (5 mg/kg, 7 d post-sTBI): 17.78 ± 2.94 nmol/g w.w.
